The values that follow are results of earlier work, collected in US11103490B2, “Clevidipine emulsion formulations containing antimicrobial agents” (Chiesi Farmaceutici, S.P.A., priority 2010, dated 2021).

Molecules are shown by their SMILES.

The conditions of series [1]: in vivo.

Consider `CCCC(=O)OCOC(=O)C1=C(C)NC(C)=C(C(=O)OC)C1c1cccc(Cl)c1Cl` (stereo not shown) [Clevidipine, clevidipine], for which the solubility in lipids entry is on record as “moderate to high” and the solubility in water entry is on record as “low”. In series [1], the initial phase half-life result is on record as “about one” and the terminal half-life result is on record as “approximately 15 minutes”.
